Counter-ions that a name gives are not always drawn.
Tests used:
TNF-α production = test: Effect on TNF-α production in mice (in vivo), LPS-induced; details: serum TNF-α 90 min after LPS 500 μg/kg i.p.; test compound orally 30 min before LPS; ratio relative to test compound non-administration group
Description: (§1) Since the TNF-α concentration in serum reaches a peak at 90 min after LPS administration, the TNF-α concentration in the serum at this point was measured using FACTOR TEST mTNF-α (manufactured by Genzyme) and the IL-10 concentration at the same point of time was also measured using Murine IL-10 ELISA Kit (manufactured by Endogen). […] The effect of the test compound on the TNF-α production and IL-10 production was calculated by the following formula as the ratio relative to the test compound non-administration group.

IL-10 production = test: Effect on IL-10 production in mice (in vivo), LPS-induced; details: serum IL-10 90 min after LPS 500 μg/kg i.p.; test compound orally 30 min before LPS; ratio relative to test compound non-administration group
Description: as §1

With `CC(=O)NC(C)c1ccc(CN2CCN(c3ccccc3)CC2)cc1` (stereo not drawn) [Example 58, N-(1-(4-((4-Phenylpiperazin-1-yl)methyl)phenyl)ethyl)acetamide Dihydrochloride 1/4 Hydrate] the “TNF-α production (%)” value (TNF-α production) was 19% and the “IL-10 production (%)” value (IL-10 production) was 499%.
Work on `CC(=O)NCc1ccc(CN2CCN(c3nc(F)cc(F)n3)CC2)cc1` [Example 78, N-(4-((4-(4,6-Difluoropyrimidin-2-yl)piperazin-1-yl)methyl)phenylmethyl)acetamide] yielded a melting point of 128 to 129 °C.
`CC(=O)NCc1ccc(CN2CCN(c3ccc(NC(C)=O)cc3)CC2)cc1` [Example 35, N-(4-((4-(4-Acetamidophenyl)piperazin-1-yl)methyl)phenylmethyl)acetamide] showed a melting point of 225 to 226 °C.
`CCOc1cc(OCC)nc(N2CCN(Cc3ccc(CNC(C)=O)cc3)CC2)n1` [Example 108, N-(4-((4-(4,6-Diethoxypyrimidin-2-yl)piperazin-1-yl)methyl)phenylmethyl)acetamide] showed a melting point of 119 to 120 °C.
In the case of `CC(=O)NCc1ccc(CN2CCN(c3nc(N(C)C)cc(N(C)C)n3)CC2)cc1` [Example 109, N-(4-((4-(4,6-bis(Dimethylamino)-pyrimidin-2-yl)piperazin-1-yl)methyl)phenylmethyl)acetamide], the melting point is reported as 189 to 190 °C (dec.).
`CC(=O)NC1(c2ccc(CN3CCN(c4nccs4)CC3)cc2)CC1` [Example 100, N-(1-(4-((4-(Thiazol-2-yl)piperazin-1-yl)methyl)phenyl)cyclopropyl)acetamide] gave a melting point of 184 to 185 °C.
With `CC(=O)NCc1ccc(CN2CCN(c3ccccc3)CC2)cc1[N+](=O)[O-]` [Example 21, N-(2-Nitro-4-((4-phenylpiperazin-1-yl)methyl)phenylmethyl)acetamide] the melting point was 135 to 136 °C.
For `CC(=O)NCc1ccc(CN2CCN(c3ccc(F)cc3)CC2)cc1Cl` [Example 26, N-(2-Chloro-4-((4-(4-fluorophenyl)-piperazin-1-yl)methyl)phenylmethyl)acetamide], the melting point was 141 to 142 °C.
Compound `CC(=O)NCc1ccc(CN2CCN(c3ccc(F)cc3[N+](=O)[O-])CC2)cc1` [Example 37, N-(4-((4-(4-Fluoro-2-nitrophenyl)-piperazin-1-yl)methyl)phenylmethyl)acetamide] has a melting point of 94.5 to 96 °C.
For `CC(=O)NCc1ccc(CN2CCN(c3ccccc3)CC2)cc1N` [Example 22, N-(2-Amino-4-((4-phenylpiperazin-1-yl)methyl)phenylmethyl)acetamide], the melting point was 148 to 149 °C.
In the case of `CC(=O)NC(C)c1ccc(CN2CCN(c3nccs3)CC2)cc1` (stereo not drawn) [Example 101, N-(1-(4-((4-(Thiazol-2-yl)piperazin-1-yl)methyl)phenyl)ethyl)acetamide], the melting point is reported as 136 to 137 °C.
For `CC(=O)NCc1ccc(CN2CCN(c3ncc(Cl)s3)CC2)cc1` [Example 112, N-(4-((4-(5-Chlorothiazol-2-yl)piperazin-1-yl)methyl)phenylmethyl)acetamide], the melting point was 142 to 145 °C (dec.).
Work on `CC(=O)NCc1ccc(CN2CCN(c3ccc(F)cc3Cl)CC2)cc1` [Example 44, N-(4-((4-(2-Chloro-4-fluorophenyl)piperazin-1-yl)methyl)phenylmethyl)acetamide] yielded a melting point of 255 to 257 °C.
`CC(=O)NCc1ccc(CN2CCN(c3ccc(F)cc3)CC2)cc1` [Example 5, N-(4-((4-(4-fluorophenyl)piperazin-1-yl)methyl)phenylmethyl)acetamide] showed a melting point of 164 to 166 °C.
`CC(=O)N[C@@H](C)c1ccc(CN2CCN(c3ccc(F)cc3)CC2)cc1` [Example 121, (S)-N-(1-(4-((4-(4-Fluorophenyl)piperazin-1-yl)methyl)phenyl)ethyl)acetamide] gave a melting point of 114 to 115 °C.
`CC(=O)NCc1ccc(CN2CCN(c3ccc([N+](=O)[O-])cc3)CC2)cc1` [Example 33, N-(4-((4-(4-Nitrophenyl)piperazin-1-yl)methyl)phenylmethyl)acetamide] gave a melting point of 151.5 to 153.5 °C.
With `NCc1ccc(CN2CCN(c3ccccc3)CC2)cc1` [Example 2, 4-((4-(Aminomethyl)phenyl)methyl)-1-phenylpiperazine] the melting point was 68 to 70 °C.
Work on `NCc1ccc(CN2CCN(c3ncccn3)CC2)cc1` [Example 74, 2-(4-(4-(Aminomethyl)phenylmethyl)-piperazin-1-yl)pyrimidine] yielded a melting point of 70 to 72 °C.
Work on `CC(=O)NC(C)(C)c1ccc(CN2CCN(c3ccccn3)CC2)cc1` [Example 105, N-(1-Methyl-1-(4-((4-(pyridin-2-yl)piperazin-1-yl)methyl)phenyl)ethyl)acetamide] yielded a melting point of 129 to 130 °C.
With `CC(=O)NC(C)(C)c1ccc(CN2CCN(c3ncccn3)CC2)cc1` [Example 95, N-(1-Methyl-1-(4-((4-(pyrimidin-2-yl)piperazin-1-yl)methyl)phenyl)ethyl)acetamide] the melting point was 137 to 138 °C.
`CC(=O)NC1(c2ccc(CN3CCN(c4ccc(F)cc4F)CC3)cc2)CC1` [Example 66, N-(1-(4-((4-(2,4-Difluorophenyl)-piperazin-1-yl)methyl)phenyl)cyclopropyl)acetamide] showed a melting point of 124 to 125 °C.
With `CC(=O)NCc1ccc(CN2CCN(c3cccc(C)c3)CC2)cc1` [Example 9, N-(4-((4-(3-Methylphenyl)piperazin-1-yl)methyl)phenylmethyl)acetamide] the melting point was 80 to 81 °C.
Work on `CC(=O)NCc1ccc(C(C)(C)N2CCN(c3ccc(F)cc3)CC2)cc1` (as salt: hydrochloride) (hydrate or solvate) yielded a melting point of 179 to 181 °C.
`CC(=O)NCc1ccc(CN2CCN(c3ccc(F)cc3N)CC2)cc1` [Example 38, N-(4-((4-(2-Amino-4-fluorophenyl)piperazin-1-yl)methyl)phenylmethyl)acetamide] gave a melting point of 139 to 140 °C.
Work on `CC(=O)NCc1ccc(CN2CCN(c3ccc(F)cc3NC(C)=O)CC2)cc1` [Example 39, N-(4-((4-(2-Acetylamino-4-fluorophenyl)piperazin-1-yl)methyl)phenylmethyl)acetamide] yielded a melting point of 148 to 149.5 °C.
In the case of `CC(=O)NCc1ccc(C(C)N2CCN(c3ccccc3)CC2)cc1` (stereo not drawn) (as salt: hydrochloride), the melting point is reported as 233 to 235 °C (dec.).
`CC(=O)NCc1ccc(CN2CCN(c3ccc(O)cc3)CC2)cc1` (as salt: hydrochloride) [Example 36, N-(4-((4-(4-Hydroxyphenyl)piperazin-1-yl)methyl)phenylmethyl)acetamide Dihydrochloride] showed a melting point of 218 to 220 °C.
Work on `CCC(NC(C)=O)c1ccc(CN2CCN(c3ccccc3)CC2)cc1` (stereo not drawn) [Example 53, N-(1-(4-((4-Phenylpiperazin-1-yl)methyl)phenyl)propyl)acetamide] yielded a melting point of 109 to 110.5 °C.
`CC(=O)NCc1ccc(CN2CCN(c3ncc([N+](=O)[O-])s3)CC2)cc1` [Example 88, N-(4-((4-(5-Nitrothiazol-2-yl)piperazin-1-yl)methyl)phenylmethyl)acetamide] showed a melting point of 151 to 152 °C.
`CC(=O)NCc1c(C)cc(CN2CCN(c3ccc(F)cc3)CC2)cc1C` [Example 18, N-(4-(4-(4-Fluorophenyl)piperazin-1-ylmethyl)-2,6-dimethylphenylmethyl)acetamide] showed a melting point of 163 to 164 °C.
Work on `CC(=O)NCc1ccc(CN2CCN(c3ncccn3)CC2)cc1` (as salt: hydrochloride) (hydrate or solvate) [Example 73, N-(4-((4-(Pyrimidin-2-yl)piperazin-1-yl)methyl)phenylmethyl)acetamide Dihydrochloride Monohydrate] yielded a melting point of 194 to 195 °C.
Compound `CC(=O)NC1(c2ccc(CN3CCN(c4ccccc4)CC3)cc2)CC1` [Example 57, N-(1-(4-((4-Phenylpiperazin-1-yl)methyl)-phenyl)cyclopropyl)acetamide] has a melting point of 129 to 139.5 °C.
Compound `O=CNCc1ccc(CN2CCN(c3ncccn3)CC2)cc1` [Example 76, N-(4-((4-(Pyrimidin-2-yl)piperazin-1-yl)methyl)phenylmethyl)formamide] has a melting point of 97 to 98 °C.
`O=CNCc1ccc(CN2CCN(c3ccccc3)CC2)cc1` [Example 3, N-(4-((4-Phenylpiperazin-1-yl)methyl)phenylmethyl)formamide] showed a melting point of 108 to 109 °C.
For `CC(=O)NCc1ccc(CN2CCN(c3nccs3)CC2)cc1` [Example 81, N-(4-((4-(Thiazol-2-yl)piperazin-1-yl)methyl)phenylmethyl)acetamide Hydrochloride 1/2 Hydrate], the “TNF-α production (%)” value (TNF-α production) was 11% and the “IL-10 production (%)” value (IL-10 production) was 1035%.
For `CC(=O)NC1(c2ccc(C(C)N3CCN(c4ncccn4)CC3)cc2)CC1` (stereo not drawn) [Example 70, N-(1-(4-(1-(4-(Pyrimidin-2-yl)piperazin-1-yl)ethyl)phenyl)cyclopropyl)acetamide], the melting point was 124 to 125 °C.
In the case of `CC(=O)NCCc1ccc(CN2CCN(c3ccc(F)cc3)CC2)cc1` [Example 27, N-(2-(4-((4-(4-Fluorophenyl)piperazin-1-yl)methyl)phenyl)ethyl)acetamide], the melting point is reported as 121 to 123 °C.
Work on `COc1cc(N(C)C)nc(N2CCN(Cc3ccc(CNC(C)=O)cc3)CC2)n1` [Example 110, N-(4-((4-(4-Dimethylamino-6-methoxypyrimidin-2-yl)piperazin-1-yl)methyl)phenylmethyl)acetamide] yielded a melting point of 115 to 118 °C.
In the case of `COc1ccnc(N2CCN(Cc3ccc(C(C)NC(C)=O)cc3)CC2)n1` (stereo not drawn) [Example 107, N-(1-(4-((4-(4-Methoxypyrimidin-2-yl)piperazin-1-yl)methyl)phenyl)ethyl)acetamide], the melting point is reported as 113 to 115 °C.
Work on `CC(=O)N[C@H](C)c1ccc(CN2CCN(c3ccc(F)cc3)CC2)cc1` [Example 122, (R)-N-(1-(4-((4-(4-fluorophenyl)piperazin-1-yl)methyl)phenyl)ethyl)acetamide] yielded a melting point of 114 to 115 °C.

Reference: patent US6455528B1, “Piperazine compounds and medicinal use thereof” (Mitsubishi Pharma Corporation, priority 1997, dated 2002)
